According to patent US6264935A, “Ophthalmic composition containing a carbonic anhydrase inhibitor and xanthan gum” (priority 1996, dated 2001):
“Also recorded” adds a separate entry of the source.

What was measured:
[1] = background; result in words; cited from earlier work
[2] = rabbit, in vivo

Compound	reduction of intraocular pressure [1]	side effects / local effects [1]	duration of activity and loss of effect [1]	change in ocular bioavailability compared with the TRUSOPT formulation [2]
CC[C@@H]1C(=O)OC[C@@H]1Cc1cncn1C [pilocarpine]	reduce intraocular pressure	undesirable local effects		
CC(C)(C)NC[C@H](O)COc1nsnc1N1CCOCC1 [timolol]	found to reduce intraocular pressure	devoid of many unwanted side effects associated with pilocarpine; also recorded: devoid of local anaesthetic properties	long duration of activity; also recorded: minimal loss of effect with increased duration of dosing	
cyclodextrin				only minor changes in bioavailability
polyvinyl alcohol				only minor changes in bioavailability
